Assay [1] concerns CrGluCl-B. Kind of assay: Two-electrode voltage-clamp of Xenopus oocytes expressing CrGluCl-B. The assay is classed as cell-based, Caligus rogercresseyi. The following applies: CrGluCl-B. The procedure:
(§1) Adult female Xenopus laevis frogs were anaesthetized by immersion in a1g/L solution tricaine (Ethyl 3-aminobenzoate methanesulfonate, Sigma) buffered to pH 7 with NaHCO3. Surgery was performed 30–40 min later, once the frog was completely anaesthetized judging by loss of reflexes. Ovarian lobes were removed through 1 cm abdominal incision and then kept at 16°C in Barth’s modified solution containing (in mM): 88 NaCl, 1 KCl, 0.4 CaCl2, 0.3 Ca (NO3)2, 0.8 MgSO4, 2.4 NaHCO3, 5 Hepes, 2.5 sodium pyruvate, 100 μg/ml gentamicin sulfate, 100 U/ml penicillin, 100 μg/ml streptomycin, 250 μg/ml amphotericin B, 0.22μm filtered and adjusted to pH 7.5 with Tris-Base. Osmolarity was brought to 220 mOsm with saccharose. The oocytes were manually defolliculated on the same day of extraction and the following day 20 ng cRNA in nuclease-free water was injected into stage V-VI oocytes using a FemtoJet microinjector (Eppendorf). Finally, the injected oocytes were stored in 96 well plates containing Barth’s modified solution and kept at 16°C until experiment day.
(§2) Current measurements at controlled membrane potentials (voltage-clamp experiments) were performed using two intracellular microelectrodes in defolliculated Xenopus oocytes previously microinjected with 20 ng of cRNA. Voltage-clamp recording was performed at room temperature using a TURBO TEC-10CX amplifier (npi electronic GmbH, Tamm, Germany) and PClamp 10.6 software (Axon Instruments, USA), 1 to 4 days after oocyte injection. The oocytes were recorded in a chamber (Model RC-1Z, Warner Instrumenst, USA) under continuous superfusion. […] Reference was an Ag-AgCl electrode connected to the bath via a 3 M KCl in 3% agar bridge. Currents were recorded continuously during the experiments without interruptions for solution changes. Oocytes were held at -30 mV and a voltage protocol consisting of a voltage drop to -100 mV for 25ms followed by a 360 ms ramp from -100 mV to 60mV applied with a period of 565 ms was continuously given. The signal filtered at 1 kHz was acquired with a Digidata 1440A Analog-to-Digital Converter and analyzed with Axon pClamp 10.6 software. The solution that bathed the oocytes during the electrophysiological recordings had the following composition (mM): 115 NaCl, 2 KCl, 1.8 CaCl2, 1 MgCl2, 10 HEPES pH 7.5 obtained with NaOH. For the low chloride solution, all the NaCl was replaced with the gluconate salt of Na. This decreases chloride concentration from 122.6 to 7.6 mM while increasing that of gluconate from 0 to 115 mM. The stock solutions of the drugs in dimethyl sulfoxide (DMSO) were: 10 mM emamectin, 10 mM ivermectin, 100 mM picrotoxin. These were diluted in bath solution to obtain final concentrations.
(§3) The currents were normalized according to the extrapolated maximum current delivered by the Hill adjustment. In this way, the concentration that generates 50% of the maximum effect (EC50) and the Hill coefficient (nH) for each situation were obtained.

Assay [2] has as its target T1, CrGluCl-A (Caligus rogercresseyi, UniProt A0A1W6LZ70). The conditions noted are these: cited from earlier work.
Assay [3] deals with CrGluCl-D. The assay is classed as cell-based, Caligus rogercresseyi. The conditions noted are these: CrGluCl-D, read-out: IC50 PTX inhibition of spontaneous current. The protocol: as §1, §2, §3
In assay [4] the test system is CrGluCl-C. The format is cell-based, Caligus rogercresseyi. The procedure: as §1, §2, §3
The target of assay [5] is T1, CrGluCl-A. Briefly: Two-electrode voltage-clamp of Xenopus oocytes expressing CrGluCl-A. The format is cell-based. The following applies: 100 μM PTX, CrGluCl-A. The protocol:
as §1
Current measurements at controlled membrane potentials (voltage-clamp experiments) were performed using two intracellular microelectrodes in defolliculated Xenopus oocytes previously microinjected with 20 ng of cRNA. Voltage-clamp recording was performed at room temperature using a TURBO TEC-10CX amplifier (npi electronic GmbH, Tamm, Germany) and PClamp 10.6 software (Axon Instruments, USA), 1 to 4 days after oocyte injection. The oocytes were recorded in a chamber (Model RC-1Z, Warner Instrumenst, USA) under continuous superfusion. […] Reference was an Ag-AgCl electrode connected to the bath via a 3 M KCl in 3% agar bridge. Currents were recorded continuously during the experiments without interruptions for solution changes. […] The signal filtered at 1 kHz was acquired with a Digidata 1440A Analog-to-Digital Converter and analyzed with Axon pClamp 10.6 software. […]

Like-named read-outs stand apart in the source and are kept apart here.

T1 sequence (A0A1W6LZ70 entry or part of it): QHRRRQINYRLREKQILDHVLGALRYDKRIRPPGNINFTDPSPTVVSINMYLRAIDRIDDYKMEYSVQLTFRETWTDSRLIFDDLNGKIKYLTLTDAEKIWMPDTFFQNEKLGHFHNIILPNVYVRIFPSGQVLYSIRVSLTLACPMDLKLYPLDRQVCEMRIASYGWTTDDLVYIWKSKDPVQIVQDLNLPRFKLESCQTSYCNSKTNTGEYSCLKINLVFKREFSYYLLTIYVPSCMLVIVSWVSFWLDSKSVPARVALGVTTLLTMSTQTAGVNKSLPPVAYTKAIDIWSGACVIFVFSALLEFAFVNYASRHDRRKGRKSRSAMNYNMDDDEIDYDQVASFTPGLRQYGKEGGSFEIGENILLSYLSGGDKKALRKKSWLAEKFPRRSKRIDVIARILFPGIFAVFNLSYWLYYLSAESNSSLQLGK

For emamectin, the “antagonism of glutamate response” value in assay [1] (S3 Fig) is on record as “antagonistic effect”. In addition, the EC50 in assay [2] (read-out: EC50 Ivermectin / avermectin irreversible activation) was around 200 nM.
With picrotoxin [PTX], the IC50 in assay [3] (after 1 μM ivermectin (~2 min)) is 221 ± 100 µM; in assay [3] (before ivermectin treatment), 16 ± 8.8 µM; in assay [4] (CrGluCl-C current elicited by 1 μM ivermectin, read-out: IC50 PTX inhibition of ivermectin-induced current) it was 275 ± 96 µM; in assay [2], 3.2 µM. Further, the “inhibition by PTX” value was 23 ± 10% in assay [4] (100 μM PTX, CrGluCl-C) and 78 ± 2% in assay [5]. The “nH (PTX inhibition)” value in assay [4] (CrGluCl-C current elicited by 1 μM ivermectin) is given as -1.2±0.22. The “inhibition by PTX of glutamate-elicited current” value in assay [1] (100 μM PTX, 1 mM glutamate) is recorded as 76 ± 9%.
